From article PMC3639963, “A New Class of Small Molecule Inhibitor of BMP Signaling” (PLoS ONE, 2013)

Key:
Experiment in all cases: DSF thermal shift
Format in all cases: binding
Conditions in all cases: 10 µM inhibitor; read-out: Tm shift
ALK4 = biological target: T1, ALK4 (Homo sapiens, UniProt P36896)
T1 construct: purchased Invitrogen
T1 sequence (P36896 24-505): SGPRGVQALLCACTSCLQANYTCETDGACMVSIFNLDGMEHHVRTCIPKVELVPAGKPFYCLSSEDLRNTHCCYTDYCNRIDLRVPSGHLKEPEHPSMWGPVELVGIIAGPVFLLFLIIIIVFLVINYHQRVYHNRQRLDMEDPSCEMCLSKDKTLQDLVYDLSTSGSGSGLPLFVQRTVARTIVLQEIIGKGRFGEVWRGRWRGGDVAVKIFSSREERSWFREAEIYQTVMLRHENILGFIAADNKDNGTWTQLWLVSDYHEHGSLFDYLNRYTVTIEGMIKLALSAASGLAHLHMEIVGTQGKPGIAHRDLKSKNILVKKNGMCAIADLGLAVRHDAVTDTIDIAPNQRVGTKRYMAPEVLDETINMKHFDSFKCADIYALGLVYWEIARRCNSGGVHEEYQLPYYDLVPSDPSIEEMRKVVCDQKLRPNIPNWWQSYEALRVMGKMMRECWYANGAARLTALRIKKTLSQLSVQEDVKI
Protocol: (§1) Thermal melting experiments were performed using a Real Time PCR machine Mx3005p (Stratagene) with a protein concentration of 1–2 µM and 10 µM inhibitor as described previously, [25]. […] Recombinant human kinases for DSF screening were prepared by SGC using published methods, [36].

ActRIIA = biological target: T2, ActRIIA (Homo sapiens, UniProt P27037)
T2 construct: purchased Nanosyn (enzymatic panel); SGC in-house recombinant human kinases (DSF panel); Invitrogen (ALK1-6)
Protocol: as §1

CDK2 = biological target: T3, CDK2 (Homo sapiens, UniProt P24941)
T3 construct: purchased Nanosyn (enzymatic panel); SGC in-house recombinant human kinases (DSF panel); Invitrogen (ALK1-6)
Protocol: as §1

CLK2 = biological target: T4, CLK2 (Homo sapiens, UniProt P49760)
T4 construct: purchased Nanosyn (enzymatic panel); SGC in-house recombinant human kinases (DSF panel); Invitrogen (ALK1-6)
Protocol: as §1

CLK4 = biological target: T5, CLK4 (Homo sapiens, UniProt Q9HAZ1)
T5 construct: purchased Nanosyn (enzymatic panel); SGC in-house recombinant human kinases (DSF panel); Invitrogen (ALK1-6)
Protocol: as §1

ERK1 = biological target: T6, ERK1 (Homo sapiens, UniProt P27361)
T6 construct: purchased Nanosyn (enzymatic panel); SGC in-house recombinant human kinases (DSF panel); Invitrogen (ALK1-6)
Protocol: as §1

FES = biological target: T7, FES (Homo sapiens, UniProt P07332)
T7 construct: purchased Nanosyn (enzymatic panel); SGC in-house recombinant human kinases (DSF panel); Invitrogen (ALK1-6)
Protocol: as §1

GRK1 = biological target: T8, GRK1 (Homo sapiens, UniProt Q15835)
T8 construct: purchased Nanosyn (enzymatic panel); SGC in-house recombinant human kinases (DSF panel); Invitrogen (ALK1-6)
T8 sequence (Q15835 1-563): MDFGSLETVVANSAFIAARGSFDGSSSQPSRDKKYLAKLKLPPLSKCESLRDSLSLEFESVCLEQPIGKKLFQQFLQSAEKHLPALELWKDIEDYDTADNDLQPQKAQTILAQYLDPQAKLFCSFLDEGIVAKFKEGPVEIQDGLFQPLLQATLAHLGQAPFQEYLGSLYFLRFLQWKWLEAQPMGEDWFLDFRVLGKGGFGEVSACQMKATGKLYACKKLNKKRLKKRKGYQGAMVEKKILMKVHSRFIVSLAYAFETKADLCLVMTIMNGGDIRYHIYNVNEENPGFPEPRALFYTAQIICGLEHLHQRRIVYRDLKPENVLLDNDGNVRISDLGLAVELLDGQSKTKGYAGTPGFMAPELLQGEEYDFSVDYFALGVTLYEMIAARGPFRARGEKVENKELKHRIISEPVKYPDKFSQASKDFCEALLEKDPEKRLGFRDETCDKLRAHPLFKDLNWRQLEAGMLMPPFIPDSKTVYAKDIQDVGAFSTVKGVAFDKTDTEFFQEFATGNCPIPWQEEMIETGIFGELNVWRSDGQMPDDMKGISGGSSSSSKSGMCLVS
Protocol: as §1

MEK2 = biological target: T9, MEK2 (Homo sapiens, UniProt P36507)
T9 construct: purchased Nanosyn (enzymatic panel); SGC in-house recombinant human kinases (DSF panel); Invitrogen (ALK1-6)
Protocol: as §1

MST3 = biological target: T10, MST3 (Homo sapiens, UniProt Q9Y6E0)
T10 construct: purchased Nanosyn (enzymatic panel); SGC in-house recombinant human kinases (DSF panel); Invitrogen (ALK1-6)
Protocol: as §1

PIM1 = biological target: T11, PIM1 (Homo sapiens, UniProt P11309)
T11 construct: purchased Nanosyn (enzymatic panel); SGC in-house recombinant human kinases (DSF panel); Invitrogen (ALK1-6)
Protocol: as §1

PKN1 = biological target: T12, PKN1 (Homo sapiens, UniProt Q16512)
T12 construct: purchased Nanosyn (enzymatic panel); SGC in-house recombinant human kinases (DSF panel); Invitrogen (ALK1-6)
Protocol: as §1

PLK4 = biological target: T13, PLK4 (Homo sapiens, UniProt O00444)
T13 construct: purchased Nanosyn (enzymatic panel); SGC in-house recombinant human kinases (DSF panel); Invitrogen (ALK1-6)
T13 sequence (O00444 1-970): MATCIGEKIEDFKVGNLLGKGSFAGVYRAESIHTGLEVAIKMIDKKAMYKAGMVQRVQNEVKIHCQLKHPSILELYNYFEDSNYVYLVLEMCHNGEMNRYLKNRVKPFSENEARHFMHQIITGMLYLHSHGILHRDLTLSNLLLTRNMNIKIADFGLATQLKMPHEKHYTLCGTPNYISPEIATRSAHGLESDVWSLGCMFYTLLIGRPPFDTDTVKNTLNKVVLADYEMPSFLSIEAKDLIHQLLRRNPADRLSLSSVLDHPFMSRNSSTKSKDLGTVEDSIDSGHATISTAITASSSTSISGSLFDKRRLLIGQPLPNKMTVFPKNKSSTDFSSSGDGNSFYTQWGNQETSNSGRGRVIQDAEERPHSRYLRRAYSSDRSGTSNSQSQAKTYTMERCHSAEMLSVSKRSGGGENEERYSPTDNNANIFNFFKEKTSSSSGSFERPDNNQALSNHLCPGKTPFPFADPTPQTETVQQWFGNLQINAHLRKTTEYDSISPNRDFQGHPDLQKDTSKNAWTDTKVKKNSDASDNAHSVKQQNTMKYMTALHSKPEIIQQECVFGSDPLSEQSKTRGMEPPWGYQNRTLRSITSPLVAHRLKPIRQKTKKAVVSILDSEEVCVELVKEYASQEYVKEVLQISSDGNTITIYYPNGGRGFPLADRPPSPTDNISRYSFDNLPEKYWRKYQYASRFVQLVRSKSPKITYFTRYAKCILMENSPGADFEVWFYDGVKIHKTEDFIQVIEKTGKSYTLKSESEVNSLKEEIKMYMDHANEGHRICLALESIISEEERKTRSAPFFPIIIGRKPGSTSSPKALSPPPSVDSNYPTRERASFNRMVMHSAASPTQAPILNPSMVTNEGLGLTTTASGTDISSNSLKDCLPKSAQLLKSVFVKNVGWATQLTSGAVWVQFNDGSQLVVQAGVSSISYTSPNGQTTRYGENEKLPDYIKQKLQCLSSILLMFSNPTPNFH
Protocol: as §1

RSK1 = biological target: T14, RSK1 (Homo sapiens, UniProt Q15418)
T14 construct: purchased Nanosyn (enzymatic panel); SGC in-house recombinant human kinases (DSF panel); Invitrogen (ALK1-6)
Protocol: as §1

SLK = biological target: T15, SLK (Homo sapiens, UniProt Q9H2G2)
T15 construct: purchased Nanosyn (enzymatic panel); SGC in-house recombinant human kinases (DSF panel); Invitrogen (ALK1-6)
Protocol: as §1

YANK1 = biological target: T16, YANK1 (Homo sapiens, UniProt Q8WU08)
T16 construct: purchased Nanosyn (enzymatic panel); SGC in-house recombinant human kinases (DSF panel); Invitrogen (ALK1-6)
Protocol: as §1

T10 sequence (Q9Y6E0 whole entry): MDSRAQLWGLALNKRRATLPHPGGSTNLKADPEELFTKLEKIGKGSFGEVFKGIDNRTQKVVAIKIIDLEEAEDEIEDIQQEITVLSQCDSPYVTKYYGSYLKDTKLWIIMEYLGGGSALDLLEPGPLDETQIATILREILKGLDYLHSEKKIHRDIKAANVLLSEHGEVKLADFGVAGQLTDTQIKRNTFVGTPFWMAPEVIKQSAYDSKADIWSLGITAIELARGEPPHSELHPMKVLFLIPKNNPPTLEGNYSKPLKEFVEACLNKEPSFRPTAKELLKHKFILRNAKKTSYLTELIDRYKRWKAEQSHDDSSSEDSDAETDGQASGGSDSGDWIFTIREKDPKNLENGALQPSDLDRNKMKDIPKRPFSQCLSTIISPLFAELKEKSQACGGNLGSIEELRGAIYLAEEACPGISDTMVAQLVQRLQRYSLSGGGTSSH
T9 sequence (P36507 whole entry): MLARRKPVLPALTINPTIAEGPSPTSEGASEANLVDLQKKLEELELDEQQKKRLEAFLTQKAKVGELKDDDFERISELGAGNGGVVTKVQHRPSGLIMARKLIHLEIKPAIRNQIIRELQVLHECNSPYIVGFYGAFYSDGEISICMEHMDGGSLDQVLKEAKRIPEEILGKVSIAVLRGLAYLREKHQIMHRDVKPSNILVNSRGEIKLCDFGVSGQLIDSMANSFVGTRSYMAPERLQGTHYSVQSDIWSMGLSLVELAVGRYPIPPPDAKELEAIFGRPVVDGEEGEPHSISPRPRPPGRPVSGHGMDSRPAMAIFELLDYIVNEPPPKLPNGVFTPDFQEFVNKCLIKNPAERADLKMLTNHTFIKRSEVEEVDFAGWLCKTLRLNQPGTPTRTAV
T16 sequence (Q8WU08 whole entry): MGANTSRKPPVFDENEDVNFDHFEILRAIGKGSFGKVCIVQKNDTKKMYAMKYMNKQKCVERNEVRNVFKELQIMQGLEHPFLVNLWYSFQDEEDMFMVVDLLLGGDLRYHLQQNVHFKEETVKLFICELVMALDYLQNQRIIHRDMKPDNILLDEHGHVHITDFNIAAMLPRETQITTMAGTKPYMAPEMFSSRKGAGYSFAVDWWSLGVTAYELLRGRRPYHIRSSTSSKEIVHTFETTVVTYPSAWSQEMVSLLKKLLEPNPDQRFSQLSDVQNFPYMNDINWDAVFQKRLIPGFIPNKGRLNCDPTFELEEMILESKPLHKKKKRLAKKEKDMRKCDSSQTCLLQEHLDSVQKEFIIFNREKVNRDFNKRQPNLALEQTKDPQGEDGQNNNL
T14 sequence (Q15418 whole entry): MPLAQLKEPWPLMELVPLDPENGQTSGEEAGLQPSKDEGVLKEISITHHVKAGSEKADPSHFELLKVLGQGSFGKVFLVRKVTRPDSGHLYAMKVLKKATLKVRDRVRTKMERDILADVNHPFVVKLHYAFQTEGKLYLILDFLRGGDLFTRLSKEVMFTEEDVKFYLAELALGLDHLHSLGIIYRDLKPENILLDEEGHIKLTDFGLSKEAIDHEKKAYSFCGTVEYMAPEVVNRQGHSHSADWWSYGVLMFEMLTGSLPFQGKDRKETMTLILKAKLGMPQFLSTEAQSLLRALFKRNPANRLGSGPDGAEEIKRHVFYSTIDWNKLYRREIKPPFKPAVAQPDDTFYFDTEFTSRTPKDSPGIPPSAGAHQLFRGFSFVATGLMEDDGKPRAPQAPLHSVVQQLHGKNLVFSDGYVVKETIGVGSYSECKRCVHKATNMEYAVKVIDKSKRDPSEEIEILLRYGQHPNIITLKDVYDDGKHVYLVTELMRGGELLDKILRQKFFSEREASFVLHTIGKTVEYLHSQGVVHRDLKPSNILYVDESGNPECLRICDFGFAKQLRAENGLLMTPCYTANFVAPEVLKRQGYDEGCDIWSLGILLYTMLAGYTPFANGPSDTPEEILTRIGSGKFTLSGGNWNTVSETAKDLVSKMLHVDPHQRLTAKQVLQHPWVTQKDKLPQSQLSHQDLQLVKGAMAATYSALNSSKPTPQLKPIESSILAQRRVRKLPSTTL
T6 sequence (P27361 whole entry): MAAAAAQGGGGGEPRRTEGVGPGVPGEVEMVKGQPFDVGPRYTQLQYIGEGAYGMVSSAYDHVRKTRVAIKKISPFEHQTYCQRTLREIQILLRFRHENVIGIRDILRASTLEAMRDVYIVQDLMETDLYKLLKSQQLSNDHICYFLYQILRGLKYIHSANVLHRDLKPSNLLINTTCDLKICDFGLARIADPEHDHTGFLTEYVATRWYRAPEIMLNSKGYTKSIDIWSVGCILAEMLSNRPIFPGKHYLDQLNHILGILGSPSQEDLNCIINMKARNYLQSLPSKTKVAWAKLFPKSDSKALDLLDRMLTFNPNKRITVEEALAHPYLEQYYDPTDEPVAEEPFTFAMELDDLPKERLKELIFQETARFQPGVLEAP
T2 sequence (P27037 20-513): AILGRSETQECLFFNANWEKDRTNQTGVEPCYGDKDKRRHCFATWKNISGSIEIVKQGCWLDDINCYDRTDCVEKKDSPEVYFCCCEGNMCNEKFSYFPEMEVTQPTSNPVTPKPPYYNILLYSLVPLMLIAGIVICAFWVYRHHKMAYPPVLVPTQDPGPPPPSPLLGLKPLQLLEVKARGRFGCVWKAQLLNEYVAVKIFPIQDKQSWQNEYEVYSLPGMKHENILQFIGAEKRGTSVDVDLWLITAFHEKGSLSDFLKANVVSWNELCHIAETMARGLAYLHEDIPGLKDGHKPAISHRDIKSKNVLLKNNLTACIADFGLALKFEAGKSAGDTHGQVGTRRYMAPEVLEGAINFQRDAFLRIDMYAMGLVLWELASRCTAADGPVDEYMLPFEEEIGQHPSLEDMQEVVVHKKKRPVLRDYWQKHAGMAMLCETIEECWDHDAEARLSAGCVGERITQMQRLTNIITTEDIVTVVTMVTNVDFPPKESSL
T11 sequence (P11309 whole entry): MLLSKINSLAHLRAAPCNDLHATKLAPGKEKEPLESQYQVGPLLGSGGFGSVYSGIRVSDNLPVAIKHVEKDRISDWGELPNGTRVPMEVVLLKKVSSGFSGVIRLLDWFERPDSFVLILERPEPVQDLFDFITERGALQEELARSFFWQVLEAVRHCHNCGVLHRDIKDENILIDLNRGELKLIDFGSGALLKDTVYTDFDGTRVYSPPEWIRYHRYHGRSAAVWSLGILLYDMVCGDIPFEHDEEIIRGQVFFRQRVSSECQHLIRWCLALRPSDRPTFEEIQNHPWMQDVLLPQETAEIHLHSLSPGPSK
T4 sequence (P49760 whole entry): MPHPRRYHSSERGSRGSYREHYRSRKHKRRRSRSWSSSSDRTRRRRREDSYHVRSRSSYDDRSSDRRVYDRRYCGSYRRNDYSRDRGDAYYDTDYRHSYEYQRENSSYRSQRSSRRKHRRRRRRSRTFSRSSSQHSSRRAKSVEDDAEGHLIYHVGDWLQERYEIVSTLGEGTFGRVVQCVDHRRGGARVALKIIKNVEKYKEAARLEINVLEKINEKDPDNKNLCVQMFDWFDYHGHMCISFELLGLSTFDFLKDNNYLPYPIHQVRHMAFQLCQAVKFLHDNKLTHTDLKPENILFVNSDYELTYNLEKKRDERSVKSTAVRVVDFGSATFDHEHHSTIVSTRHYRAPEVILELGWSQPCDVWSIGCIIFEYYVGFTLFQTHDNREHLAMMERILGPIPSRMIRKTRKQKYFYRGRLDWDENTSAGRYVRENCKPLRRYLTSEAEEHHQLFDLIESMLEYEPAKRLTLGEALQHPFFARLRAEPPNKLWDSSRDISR
T5 sequence (Q9HAZ1 whole entry): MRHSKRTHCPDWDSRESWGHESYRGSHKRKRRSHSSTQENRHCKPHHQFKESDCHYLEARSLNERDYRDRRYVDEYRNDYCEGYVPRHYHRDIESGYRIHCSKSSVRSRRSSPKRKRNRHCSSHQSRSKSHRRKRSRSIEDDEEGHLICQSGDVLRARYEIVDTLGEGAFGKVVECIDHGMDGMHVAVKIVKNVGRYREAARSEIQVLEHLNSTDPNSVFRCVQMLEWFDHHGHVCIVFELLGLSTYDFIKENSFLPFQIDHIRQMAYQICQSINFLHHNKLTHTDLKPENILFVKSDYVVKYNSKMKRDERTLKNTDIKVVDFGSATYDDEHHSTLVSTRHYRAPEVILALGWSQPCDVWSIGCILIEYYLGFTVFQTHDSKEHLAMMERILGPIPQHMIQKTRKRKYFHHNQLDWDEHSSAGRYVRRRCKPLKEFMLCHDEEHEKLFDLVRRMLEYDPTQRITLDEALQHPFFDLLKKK
T7 sequence (P07332 whole entry): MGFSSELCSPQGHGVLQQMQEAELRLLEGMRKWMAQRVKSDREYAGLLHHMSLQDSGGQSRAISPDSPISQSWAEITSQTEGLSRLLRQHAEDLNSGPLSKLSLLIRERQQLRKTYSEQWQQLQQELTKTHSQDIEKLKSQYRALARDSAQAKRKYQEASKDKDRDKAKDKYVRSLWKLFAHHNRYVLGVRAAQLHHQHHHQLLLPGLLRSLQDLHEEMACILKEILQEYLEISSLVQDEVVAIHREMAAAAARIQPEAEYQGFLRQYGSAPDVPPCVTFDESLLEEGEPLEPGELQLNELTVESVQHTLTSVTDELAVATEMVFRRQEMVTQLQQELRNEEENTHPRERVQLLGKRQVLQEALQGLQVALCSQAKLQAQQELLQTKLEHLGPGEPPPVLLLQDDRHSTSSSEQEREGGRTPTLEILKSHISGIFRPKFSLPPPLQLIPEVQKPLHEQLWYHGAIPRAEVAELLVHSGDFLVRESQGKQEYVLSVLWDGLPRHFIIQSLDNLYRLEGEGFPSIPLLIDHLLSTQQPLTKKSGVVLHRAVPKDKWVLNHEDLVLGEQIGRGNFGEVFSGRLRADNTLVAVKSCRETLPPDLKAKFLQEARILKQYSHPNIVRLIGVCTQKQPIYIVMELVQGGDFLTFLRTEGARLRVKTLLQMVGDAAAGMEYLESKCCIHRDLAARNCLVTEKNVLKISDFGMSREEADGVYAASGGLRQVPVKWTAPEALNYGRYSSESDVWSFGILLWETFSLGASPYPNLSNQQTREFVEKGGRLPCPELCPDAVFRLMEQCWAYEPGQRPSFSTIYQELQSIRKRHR

Row | SMILES | ΔTm at 10 µM (ALK4) [°C] | ΔTm at 10 µM (ActRIIA) [°C] | ΔTm at 10 µM (CDK2) [°C] | ΔTm at 10 µM (CLK2) [°C] | ΔTm at 10 µM (CLK4) [°C] | ΔTm at 10 µM (ERK1) [°C] | ΔTm at 10 µM (FES) [°C] | ΔTm at 10 µM (GRK1) [°C] | ΔTm at 10 µM (MEK2) [°C] | ΔTm at 10 µM (MST3) [°C] | ΔTm at 10 µM (PIM1) [°C] | ΔTm at 10 µM (PKN1) [°C] | ΔTm at 10 µM (PLK4) [°C] | ΔTm at 10 µM (RSK1) [°C] | ΔTm at 10 µM (SLK) [°C] | ΔTm at 10 µM (YANK1) [°C]
1 | COc1cc(-c2cc(-c3cccc(O)c3)cnc2N)cc(OC)c1OC [K02288, 3-[6-amino-5-(3,4,5-trimethoxy-phenyl)-pyridin-3-yl]-phenol] | 8.2 | 8.3 | 0.1 | 0 | 0.3 | 0.2 | 0.4 | 0 | 2.4 | 0.3 | 0.1 | 0.5 | 0 | 1.1 | 1 | 0.2
2 | c1cc(-c2cnn3cc(-c4ccc(OCCN5CCCCC5)cc4)cnc23)ccn1 [Dorsomorphin] | 6.1 | 6.1 | 2.5 | 5 | 8.7 | 0 | 0.5 | 0.4 | -0.1 | 4.6 | 0.6 | 2.3 | 4.2 | 2.8 | 1.6 | 0.5
3 | c1ccc2c(-c3cnn4cc(-c5ccc(N6CCNCC6)cc5)cnc34)ccnc2c1 [LDN-193189] | 11 | 8.6 | 0.7 | 3.3 | 5.3 | 0.2 | 0.4 | -0.7 | 2.1 | 7.9 | 0.5 | 2.3 | 3.7 | 3.3 | 1.2 | 1.2
